Test results: publication PMC2952696 (Bioorganic & medicinal chemistry letters, 2010)

Legend:
Assay type in all cases: biochemical
bovine eNOS = bovine eNOS (Bos taurus, UniProt P29473); experiment: NOS inhibition assay, bovine eNOS; settings: 2a vs 1
rat nNOS = rat nNOS (Rattus norvegicus, UniProt P29476); experiment: NOS inhibition assay, rat nNOS; settings: for selectivity n/e: rat nNOS over bovine eNOS; for selectivity n/i: rat nNOS over murine iNOS
human nNOS = human nNOS (Homo sapiens, UniProt P29475); experiment: NOS inhibition assay, human nNOS; settings: human nNOS vs rat nNOS

Row | SMILES | difference in eNOS potency compared to 1 (bovine eNOS) | drop of selectivity for rat nNOS over bovine eNOS compared to 1 (rat nNOS; 2a vs 1) | impaired potency for rat nNOS compared to 1 (rat nNOS; 2a vs 1, removal of 4-methyl group) | selectivity n/e (rat nNOS) | selectivity n/i (rat nNOS) | drop of selectivity (Ki-human/Ki-rat) compared to 1 (human nNOS) | lower potency for rat nNOS compared to 2a (rat nNOS; 2b vs 2a)
1 | Nc1cccc(C[C@@H]2CNC[C@@H]2OCCNCCc2cccc(F)c2)n1 [Compound 2a] | 3 fold | 2.3 fold | 7 fold | 1,200 | 200 | 1.2 fold | 
2 | Nc1cccc(C[C@H]2CNC[C@H]2OCCNCCc2cccc(F)c2)n1 [Compound 2b] |  |  |  | 270 | 60 |  | 4 fold
3 | N=C1CCCC(C[C@@H]2CNC[C@@H]2OCCNCCc2cccc(F)c2)N1 (stereo partly drawn) [Compound 3] |  |  |  | 530 | 200 | 1.6 fold | 
